The text below walks through data of article PMC6941357, “An in vitro toolbox to accelerate anti-malarial drug discovery and development” (Malaria Journal, 2020).

The target of series [1] is T1, Albumax medium (lipid rich bovine serum albumin) (Bos taurus, UniProt P02769).
T1 construct: purchased Gibco, Thermo Fisher Scientific
Kind of series: Binding in Albumax medium via ultracentrifugation. The format is in vitro ADME. The following applies: bovine, Albumax medium, pH 7.4. Here is the method:
(§1) An ultracentrifugation method adapted from a previous publication was initially used to assess plasma protein binding and binding in the other media. […] Additional ultracentrifuge tubes containing spiked matrix were maintained at 37 °C, 5% or 10% CO2 or normal atmosphere conditions, with aliquots being taken within 0.5 h of the start and at the end of ultracentrifugation to serve as controls for the assessment of stability and to obtain a measure of the total concentration (Ctotal). Following ultracentrifugation, the pH was checked and an aliquot of protein-free supernate was taken from each ultracentrifuge tube for determination of the unbound concentration (Cunbound).
(§2) Total matrix and protein free samples were analysed using a matrix matching approach whereby each sample was mixed in a 1:1 ratio with the opposite blank medium (i.e. blank total matrix or blank protein free buffer). For example, plasma samples were mixed with blank pH 7.4 buffer whereas plasma supernatant samples were mixed with blank plasma. Each of the sample sets were then assayed against a common calibration curve prepared in a 1:1 mixture of total matrix and protein free pH 7.4 buffer. […] The standard deviation for fu was calculated using the propagation of errors approach as described previously. The potential for compound degradation was assessed by comparing the average value for Ctotal at the start and end of the experiment.

A further series has as its system human plasma. The following applies: methods UF, ED, EP or not described per compound, ref [6]–[22] of Additional file 1; cited from earlier work.
Another series concerns human liver microsomes. Kind of series: in vitro. The following applies: human, 1 µM, pH 7.4. The procedure:
(§3) The metabolic stability assay was adapted from a previously published method. […] Reactions were quenched at 2, 5, 15, 30 and 60 min by the addition of acetonitrile containing 150 ng/mL diazepam as internal standard. Control samples (containing no cofactor) were included (quenched at 2, 30 and 60 min) to monitor degradation in the absence of cofactor. Concentrations were determined by LC–MS (Additional file 1: Table S2) by comparison to the response for a single point calibration standard prepared in quenched microsomal matrix.
(§4) Test compound concentration versus time data were fit using an exponential decay function to determine the first-order rate constant for substrate depletion. Where deviation from first-order kinetics was evident, only the initial linear portion of the logarithmic profile was utilized to determine the initial degradation rate constant (k, min^−1). Each substrate depletion rate constant was then used to calculate the in vitro intrinsic clearance value (CLint, in vitro, µL/min/mg protein) using Eq.
(§5) Unbound in vitro CLint values were obtained by dividing the measured CLint by the measured fu in microsomes.

The nature of a further series: in vitro. The following applies: human, microsomes, pH 7.4, HLM CLint. The procedure:
as §3, §4, §5

Another series addresses CYP3A4 (Homo sapiens, UniProt P08684). Briefly: Cytochrome P450 inhibition in human liver microsomes. The following applies: highest concentration tested 20 µM. The procedure: The CYP inhibition assay was based on a previous publication with minor modifications. The method uses human liver microsomes and a substrate-specific interaction approach which relies on the formation of a metabolite that is mediated by a specific CYP isoform. The specific CYP-mediated metabolic pathways, substrates, substrate Km values, positive control inhibitors and specific incubation conditions are shown in Additional file 1: Table S4. […] Samples were quenched by the addition of ice-cold acetonitrile containing diazepam as the analytical internal standard. Concentrations of the substrate-specific metabolites in quenched samples were determined by LC–MS (Additional file 1: Table S5) relative to calibration standards prepared in quenched microsomal matrix.
The inhibitory effect of each test compound and positive control inhibitor was based on the reduction in the formation of the specific CYP-mediated metabolite (represented as percent inhibition of enzyme activity) relative to metabolite formation in the absence of inhibitor (i.e. control for maximal enzyme activity). […] The Km was determined under the same incubation conditions by measuring the rate of metabolite formation (pmol/min/mg protein) as a function of substrate concentration (Additional file 1: Table S4).
A general note: Liver microsomes are vesicles of endoplasmic reticulum, rich in cytochrome P450 enzymes.

Series [2] can be described thus: Binding to human liver microsomes via ultracentrifugation. The series is classed as in vitro ADME. The following applies: human, liver microsomes, pH 7.4, 0.4 mg/mL protein, read-out: Fraction unbound, HLM. Here is the method: A suspension of human liver microsomes (HLM, XenoTech LLC, Lenexa, KS, USA) was prepared in 0.1 M phosphate buffer (pH 7.4) at a protein concentration of 0.4 mg/mL immediately prior to the experiment.
as §1, §2

The nature of series [3]: Plasma protein binding via rapid equilibrium dialysis (RED), 10% plasma. The format is in vitro ADME, human. The following applies: human, 10% pooled plasma (diluted 1:10), pH 7.4, RED, 10% plasma corrected for dilution, 6 h dialysis. Here is the method:
(§6) Pooled human plasma (n = 3–4 donors) was obtained by centrifugation of blood (collected by the Australian Red Cross Blood Service, Melbourne, Australia or the Volunteer Blood Donor Registry, Clinical Translation Centre, Walter & Eliza Hall Institute of Medical Research, Parkville, Australia), or sourcing pooled plasma directly from commercial sources (Innovative Research Inc, MI) and stored frozen at − 80 °C.
Plasma was diluted 1:10 with pH 7.4 phosphate buffer (prepared by mixing 0.1 M sodium dihydrogen phosphate and 0.1 M disodium hydrogen phosphate (both containing 0.04 M NaCl) to pH 7.4) and spiked with compound to achieve a total measured concentration of ~ 1000–3000 ng/mL. Diluted plasma was vortex mixed briefly and aliquots (n = 3–4) were transferred to RED (Thermo Fisher Scientific, Waltham, MA) units that were placed at 37 °C under ambient atmosphere on a plate shaker. […] At the end of the dialysis period, samples were removed from both the donor and dialysate chambers of the RED units. […] Fraction unbound values were calculated for each individual RED unit and the mean and SD calculated for n = 3–4 replicates.
Briefly, the RED device was exposed for two 30 min periods and one overnight period to fresh solutions of compound prepared in pH 7.4 buffer at approximately 10% of the total dialysis concentration. Following the preincubations, solutions were removed from the RED device and discarded. […] Samples were removed and analysed as described above.
For binding assessments using 10% plasma, the unbound fraction (fu) in neat plasma was calculated using the average values for Ctotal and Cunbound and Eq.

A short description of series [4]: Octanol/pH 7.4 buffer partition coefficient, shake flask. The following applies: octanol/pH 7.4 buffer. Here is the method:
Partition coefficients between octanol and pH 7.4 buffer were measured using a shake flask method. A stock solution of test compound in octanol was prepared at a concentration between 3 and 30 mg/mL based on the expected partition coefficient value. This stock solution was then diluted 3- and 10-fold with octanol and used to prepare the octanol phase for the partitioning experiments. Two different dilutions were used to confirm that there were no saturation effects. Phosphate buffered saline was prepared by combining 67 mM disodium hydrogen orthophosphate and sodium dihydrogen orthophosphate (both prepared in 43 mM NaCl) to a final pH of 7.4.
Partitioning experiments were conducted by mixing equal volumes of the octanol (containing test compound) and aqueous phases and placing on a vibrating plate mixer in an incubator at 37 °C. […] An aliquot of the aqueous phase was carefully removed and centrifuged again to ensure no contamination from the octanol phase before sampling in duplicate and diluting with aqueous methanol for analysis. Diluted samples were analysed by LC–MS along with calibration standards (Additional file 1: Table S2) and partition coefficients were calculated from the ratio of the mean octanol to buffer concentration after accounting for the dilution factors. The partitioning results for the two time points were used to confirm that the partitioning experiment had reached equilibrium.

For series [5], the system named is Caco-2 cell monolayers. The following applies: cited from earlier work.
The nature of series [6]: Plasma protein binding via ultracentrifugation (UC). The series is classed as in vitro ADME, human. The following applies: human, neat pooled plasma, pH 7.4; ultracentrifugation, neat plasma; read-out: Fraction unbound, human plasma. The procedure: as §6, §1, §2
Series [7] can be described thus: Ionization constants by potentiometric titration. The format is physicochemical. The following applies: basic pKa (B), mean ± SD, n = 3 titrations. The procedure:
The autotitrator was controlled by Tiamo software (Version 1.3). pH measurements were conducted using a Metrohm LL Micro glass electrode which was calibrated on the day of use with calibration standards at pH 2, 4, 7 and 10. All reagents were standardized (directly or indirectly) against potassium hydrogen phthalate (Sigma-Aldrich, A.C.S. Acidimetric Standard). Titrant solutions were protected from carbon dioxide absorption by flushing with nitrogen before sealing or by the incorporation of a drying tube filled with self-indicating soda lime into the titration reaction vessel set-up.
Aliquots were introduced directly into the titration vessel and diluted 1:10 with water (typical final compound concentration of 0.5 mM).

Series [8] deals with Caco-2 cell monolayers. Briefly: Bidirectional permeability across Caco-2 cell monolayers. The following applies: matrix: human plasma, corrected for fu. Here is the method:
Bidirectional permeability was assessed across Caco-2 cell monolayers as described previously. Briefly, permeability experiments were performed using either aqueous transport buffer (pH 7.4 Hanks balanced salt solution containing 20 mM HEPES) or human plasma (Australian Red Cross Blood Service) in both the apical and basolateral chambers. […] The final DMSO concentration in the donor solution was 0.1% v/v.
Samples from the donor chamber were taken at the start and end of the experiment. […] Donor and acceptor samples were stored frozen at − 80 °C until analysis by LC–MS (Additional file 1: Table S2) with sample preparation as described previously. The mass balance and apparent permeability coefficient (Papp) were calculated as previously described.
Where human plasma was used as the transport medium, Papp values were calculated as shown above, with correction for the fraction unbound (fu) in the donor solution Cdonorinitial×fu with fu determined at a similar concentration to that used in the transport experiment. The apparent flux of lucifer yellow was based on an endpoint measurement assuming no lag time. The efflux ratio was calculated as the ratio of the mean B–A to A–B Papp values.
Background: Passage across Caco-2 layers is used to estimate intestinal permeability.

The next series is described as follows: physchem. An excerpt:
Predicted Peff values were obtained from a calibration plot of literature Peff values vs measured Caco-2 Papp using either buffer or plasma as the transport medium (see Results section).

The nature of series [9]: Solubility in biorelevant media. The following applies: 37 °C. The procedure:
Solubility of each active pharmaceutical ingredient was evaluated at 37 °C in pH 7.4 phosphate buffered saline (prepared as described for the partitioning experiments), fasted (FaSSIF-V2) and fed (FeSSIF-V2) state simulated intestinal fluids and fasted state simulated gastric fluid (FaSSGF) as described by Jantratid et al.. […] Samples were vortexed and placed in a 37 °C incubator on an orbital mixer (IKA® VXR basic Vibrax® orbital mixer) set at 600 rpm. Sampling times were 1 h for FaSSGF or 5–6 h for FaSSIF-V2, FeSSIF-V2, and PBS. These times were used to reflect the maximal likely residence times within the stomach and small intestine, respectively. Sampling was carried out by centrifuging each sample at 10,000 rpm for 3 min, transferring 300 µL aliquots into fresh Eppendorf tubes and centrifuging these tubes again at 10,000 rpm for 3 min. Triplicate aliquots of the supernatant were then removed and diluted 1:2 in 50% aqueous methanol and then again in 50% aqueous acetonitrile to be within the analytical concentration range. Samples were analysed by LC–MS along with calibration standards (Additional file 1: Table S2).

[10] abbreviates: matrix: human plasma, corrected for fu.

Each structure is given as a SMILES string. Where “and” joins values, the source holds several entries; their conditions need not be identical. Equal entries are not always repeated. Where two headings read alike, the source gives them in different places. A value given as a limit tells only on which side of the number the result lay.

CYP3A4, sequence (P08684 whole entry, canonical isoform): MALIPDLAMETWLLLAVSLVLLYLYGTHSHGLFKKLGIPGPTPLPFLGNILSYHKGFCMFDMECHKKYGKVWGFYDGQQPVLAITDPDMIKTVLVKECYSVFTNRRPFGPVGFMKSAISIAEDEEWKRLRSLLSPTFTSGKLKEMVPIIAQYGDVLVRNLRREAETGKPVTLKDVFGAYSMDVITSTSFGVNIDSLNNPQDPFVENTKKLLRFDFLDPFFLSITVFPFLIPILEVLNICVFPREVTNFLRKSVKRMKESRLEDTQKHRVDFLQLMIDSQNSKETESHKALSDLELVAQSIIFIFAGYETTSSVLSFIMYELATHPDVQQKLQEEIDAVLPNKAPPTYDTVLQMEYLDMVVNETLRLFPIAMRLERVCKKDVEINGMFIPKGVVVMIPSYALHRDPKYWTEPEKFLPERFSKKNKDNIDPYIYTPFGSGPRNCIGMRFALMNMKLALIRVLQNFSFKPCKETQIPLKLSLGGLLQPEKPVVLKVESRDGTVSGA
T1 sequence (P02769 25-607): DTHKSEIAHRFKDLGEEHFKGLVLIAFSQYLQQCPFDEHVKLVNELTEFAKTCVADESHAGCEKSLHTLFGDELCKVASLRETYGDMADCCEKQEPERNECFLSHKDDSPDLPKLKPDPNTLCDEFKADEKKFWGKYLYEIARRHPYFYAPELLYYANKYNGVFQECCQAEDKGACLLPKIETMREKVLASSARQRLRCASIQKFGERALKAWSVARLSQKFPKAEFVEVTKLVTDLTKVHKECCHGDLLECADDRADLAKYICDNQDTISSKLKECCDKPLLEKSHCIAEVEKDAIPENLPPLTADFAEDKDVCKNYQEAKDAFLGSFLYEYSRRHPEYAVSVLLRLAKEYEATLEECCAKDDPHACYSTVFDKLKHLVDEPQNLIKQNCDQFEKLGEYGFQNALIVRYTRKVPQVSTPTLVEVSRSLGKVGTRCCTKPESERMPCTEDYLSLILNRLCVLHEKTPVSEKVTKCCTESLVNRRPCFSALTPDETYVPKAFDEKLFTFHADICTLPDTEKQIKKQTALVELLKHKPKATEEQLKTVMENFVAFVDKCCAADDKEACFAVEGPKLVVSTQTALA

For `CCN(CC)Cc1cc(Nc2ccnc3cc(Cl)ccc23)ccc1O` [Amodiaquine], in series [1], the fraction unbound (commonly the share of the substance not bound to proteins or other matrix) at […], 500 ng/mL amounted to 0.67 ± 0.033. Further, in the series with human plasma, the Literature fu was < 0.1. In addition, the “Unbound CLint” value in the series with human liver microsomes is given as 339 µL/min/mg. For the same compound, in the series “in vitro”, the microsomal CLint (in general, the rate of metabolic loss divided by the concentration) at 1 µM came to 308 µL/min/mg. For the same compound, the IC50 (in general, the midpoint of a concentration-inhibition curve) against CYP3A4 (CYP3A4 (midaz) IC50, human liver microsomes, CYP3A4 (midaz)) was > 20 µM; at CYP3A4 (CYP3A4 (test) IC50, human liver microsomes, CYP3A4 (test)), > 20 µM. Moreover, the fraction unbound at […] came to 0.91 ± 0.094 in [2] and 0.089 ± 0.008 in series [6]. The fraction unbound at 6 h in series [3] turned out to be 0.086. Besides, the logD (commonly lipophilicity at a set pH, counting ionised and neutral species) in [4] (pH 7.4) was found to be 2.95. In the series with Caco-2 cell monolayers [5] (Caco-2, ref [33], [35] of Additional file 1), the “Literature ER” value is on record as 1.3. For the same compound, the “Literature Papp” value in the series on Caco-2 cell monolayers [5] (Caco-2 A-B, ref [33]–[35] of Additional file 1) was 16.0 ± 1.1 10-6 cm/sec. Besides, the “A–B Papp” value in the series on Caco-2 cell monolayers [5] (setting [10]) is on record as 90 ± 8.3 10^−6 cm/s. For the same compound, in the series on Caco-2 cell monolayers [5] (setting [10]), the “B–A Papp” value is recorded as 63 ± 9.6 10^−6 cm/s. Also, the pKa in series [7] (aqueous solution (DMSO stock diluted 1:10 with water), read-out: Measured pKa) turned out to be 7 ± 0.02.
In the case of `CC1(C)CC(O)(COc2ccc(C3CCC4(CC3)OOC3(O4)C4CC5CC(C4)CC3C5)cc2)CC(C)(C)N1` (stereo not drawn) [MMV052], in the series on Caco-2 cell monolayers [8], the “A–B Papp” value was > 300 10^−6 cm/s and the “B–A Papp” value is > 300 10^−6 cm/s. Further, the SLAD in the series “physchem” is recorded as 7580 mg. For the same compound, the “An (absorption number)” value in “physchem” (Peff × tres/R, minimum 1) was 13. For the same compound, the “Ssi (estimated solubility in the small intestine)” value in the series “physchem” (based on measured FaSSIF solubility) is 1140 µg/mL. Further, the “Predicted human Peff” value in the series “physchem” (from Caco-2 Papp via calibration plot) is on record as 11 10^−4 cm/s. For the same compound, in series [4] (shake flask, 37 °C), the “Measured Log D7.4” value turned out to be 5.40. In series [9], the “Solubility FaSSGF (1 h)” value is 13.0 µg/mL and 24.7 µM; the “Solubility FaSSIF-V2 (5–6 h)” value was 1140 µg/mL and 2170 µM; the “Solubility FeSSIF-V2 (5–6 h)” value is > 2000 µg/mL and > 3800 µM; the “Solubility PBS7.4 (5–6 h)” value was 49.6 µg/mL and 94.3 µM. In series [7], the “Measured pKa” value is recorded as 8.3 ± 0.06 (B).
